# Assay results reported in patent publication US6861438B2, “Antiviral agents” (Pfizer, priority 2002, dated 2005).
row,melting point,Structure (SMILES)
1,295 °C (dec.),"O=C(NCc1ccc(Cl)cc1)c1cnc2ccsc2c1O [Example 1, N-(4-Chlorobenzyl)-7-hydroxythieno[3,2-b]pyridine-6-carboxamide]"
2,189 to 192 °C,"CCn1cc(C(=O)NCc2ccc(Cl)cc2)c(=O)c2sccc21 [Example 2, N-(4-Chlorobenzyl)-4-ethyl-7-oxo-4,7-dihydrothieno[3,2-b]pyridine-6-carboxamide]"
